Measured values taken from patent publication US12616750B2, “Combination therapy utilizing DNA alkylating agents and ATR inhibitors” (Merck Patent GmbH, priority 2018, dated 2026).

Legend:
HCC-1954 cells [1] = experiment: Dose-matrix combination assay (synergy score, Loewe model); assay type: cell-based; conditions: combination with DUBA
Experimental: (§1) Dose-matrix combination assays were performed as described above, but performed in opague 384-well plates (2k viable cells/well). Compounds were added using Tecan D300e liquid. Protein solutions were supplemented with 0.3% Tween-20 (final) and diluted to 1 μM. All wells were normalized to the maximum amount of DMSO (maximum 0.4%) or Tween-20 added. […] Luminescence values were normalized to luminescence of non-treated cells and dose-response was fitted using Smart Fit. Synergy scores were calculated using LOEWE synergy model.
(§2) The screening of synergistic drug combinations can be accomplished by performing a dose-matrix assay. Therefore, two drugs are serial diluted and mixed at every dose level, yielding a dose-matrix. The drug combination can be additive if the effects of the combination are identical to the added effects of the single agents. However, the effects of the combination might also be stronger than the activity of the single agents. This scenario is termed synergy, whereas weaker combination effects compared to the single agents are termed antagonism. A dose-matrix assay is depicted schematically in FIG. 2 which illustrates the outcomes of a dose-matrix assay: additivity, antagonism and synergy.
(§3) The screening was conducted by serial diluting the duocarmycin derivative DUBA (10) and the DDR inhibitors. […] DUBA was combined in a dose-matrix assay with hycanthone. The cell viability was measured after 6 d of treatment using the CellTiter-Glo assay kit. The signals of the cell viability assay were normalized to untreated cells and fitted. […] By subtracting the modeled data from the fitted data, an excess matrix was generated. The excess matrix can be considered as a visualization of the differences between model and actual data which also highlights spots of either high synergy or antagonism. The quantification of the combination effects, however, was performed by calculating synergy scores. […] Besides synergy score, the potency of the drugs in monotherapy was obtained from these experiments. […] The potency was obtained from this dose-response curve.
(§4) The scattering of S was determined in a sham control experiment to define a cutoff for classifying a combination as truly synergistic or antagonistic. Thus seven different compounds were combined with itself on four different cell lines and the three-σ confidence interval was calculated around the mean of the measurement. […] For the sake of convenience, the cutoff was set to a value of ±1.
(§5) Synergy scores (S) were obtained from the combination experiments that indicated additivity […] if model and actual response were equal. […] The magnitude of the score determined the extent of the combination effects.

MDA-MB-468 cells [2] = experiment: as above; assay type: cell-based; conditions: combination with DUBA; MDA-MB-468, 6 d; S ± SD; cutoff ±1
Experimental: as §1, §2, §3, §4, §5

MDA-MB-453 cells [3] = experiment: as above; assay type: cell-based; conditions: MDA-MB-453
Experimental: (§6) Dose-matrix combination assays were performed as described above, but performed in opague 384-well plates (2k viable cells/well). Compounds were added using Tecan D300e liquid. Protein solutions were supplemented with 0.3% Tween-20 (final) and diluted to 1 μM. All wells were normalized to the maximum amount of DMSO (maximum 0.4%) or Tween-20 added. Read out of luminescence was performed on Envision 2104 Multilabel Reader (Perkin Elmer) and data were evaluated using Genedata Screener® version 14.0.6-Standard (Genedata AG). Luminescence values were normalized to luminescence of non-treated cells and dose-response was fitted using Smart Fit. Synergy scores were calculated using LOEWE synergy model.
as §2

NCI-N87 cells = experiment: as above; assay type: cell-based; conditions: NCI-N87
Experimental: as §6, §2

BT-474 cells = experiment: MNED curve-shift assay; assay type: cell-based
Description: (§7) Therefore a curve-shift assay system was established. In a first step, a dose-response curve (DRC) is obtained by treating a certain cell line with an inhibitor. The maximum non-efficacious dose (MNED) can be derived from this DRC. MNED is the highest dose, that can be added to a certain cell line without affecting the viability. The activity of the ADC is confirmed in a separate experiment. Finally, a combination experiment can be conducted. Therefore, the ADC and ADC plus inhibitor at MNED are added to the cells. The inhibitor is tested in parallel at MNED as a control. Due to the application of inhibitor at MNED, no reduction in cell viability caused by the inhibitor is expected. Three outcomes are possible: 1) The combination of ADC plus inhibitor is equipotent as the ADC only. […] Such a result would be interpreted as depotentiation. […] In this case, the potency of the ADC is potentiated.
(§8) Potentiation effects are expressed as dose-reduction indices (DRI), which can be calculated by dividing the IC50-value of ADC by the IC50-value of ADC plus inhibitor according to eq. 1
(§9) Curve-shift assays were conducted as follows: The cell number and viability was determined using ViCell™-XR (Beckman Coulter) and seeded in opague 96-well plate (10k viable cells/well). After seeding, the plate was incubated (37° C., 5% C02) in a humid chamber overnight. Compounds were diluted in the appropriate medium, added to the cells and the plate was incubated (37° C., 5% CO2, 6 d) in a humid chamber. After 30 min equilibration at room temperature, CellTiter-Glo reagent (Promega) was added. After the plate was shaken (3 min, 550 rpm, rt) it was incubated (10 min, rt) and luminescence was read on a synergy 4 plate reader (BioTek). Evaluation was performed using GraphPad Prism version 6.05. Therefor luminescence values were normalized to luminescence values of non-treated cells and dose-response was fitted with 4-point logistic fit.
(§10) The determination of dose-reduction indices (DRI) in a maximum non-efficacious dose (MNED) curve-shift assay is a 3-step process as depicted exemplarily in FIG. 13. The cytotoxicity of the ADC is confirmed in a cell viability assay in an initial step. […] In the second step. the MNED of the ATRi was determined. […] In order to obtain a full […] for the combination, the starting concentration of the ADC was lowered compared to the experiment in step 1.

Calu-3 cells = experiment: MNED curve-shift assay; assay type: cell-based
Description: as §7, §8, §9, §10

HCC-1954 cells [4] = experiment: MNED curve-shift assay; assay type: cell-based; conditions: HCC-1954
Description: as §7, §8, §9, §10

JIMT-1 cells = experiment: MNED curve-shift assay; assay type: cell-based
Description: as §7, §8, §9, §10

MDA-MB-361 cells = experiment: MNED curve-shift assay; assay type: cell-based
Description: as §7, §8, §9, §10

MDA-MB-453 cells [5] = experiment: MNED curve-shift assay; assay type: cell-based
Description: as §7, §8, §9, §10

MDA-MB-468 cells [6] = experiment: MNED curve-shift assay; assay type: cell-based
Description: as §7, §8, §9, §10

SK-BR-3 cells = experiment: MNED curve-shift assay; assay type: cell-based
Description: as §7, §8, §9, §10

SK-OV-3 cells = experiment: MNED curve-shift assay; assay type: cell-based
Description: as §7, §8, §9, §10

[7] = Xenograft experiment, tolerability (body weight); design: species or system H2d Rag2 mice; conditions: mouse, in vivo
Experimental: The tolerability of the anti-cancer treatment was assessed considering the overall condition of the animal as well as body-weight changes of the mice (FIG. 22).

NCI-N87 xenografts = experiment: Xenograft experiment, therapeutic efficacy; conditions: single agent: αHER2-6 1.0 mg/kg i.v. single dose; ATRi 50 mg/kg per oral once daily 14 d
Experimental: Female H2d Rag2 mice, 6-8 weeks old, were obtained from Taconic Biosciences, LLC. A xenograft was established by harvesting NCI-N87 cells from cell culture, mixing the cells 1:1 with Matrigel and injecting 2.5×10^6 cells subcutaneously into the flank of the mice. The tumor volume was assessed twice weekly by length measurements in two dimensions using calipers. The volume was calculated following eq. 3 where the length L is the longest tumor length and W is the shortest tumor length.
After an initial tumor growth phase, mice were randomized and assigned to treatment groups comprising 10 animals. The initial tumor volume amounted to approximately 100 mm^3 when treatment started. Vehicle treated mice obtained a solution of 0.5% Methocel, 0.25% Tween-20 in water. […] Mice were weighted twice weekly to assess the body-weight during the treatment period. The criteria to terminate the study for single animals were skin ulcerations, tumor length exceeding 15 mm or tumor exceeding 10% of the body weight. In addition, body weight loss was a criterium for termination if body weight loss exceeded 20% accompanied with a haggard appearance, body weight loss exceeded 20% on three successive days or if body weight loss exceeded 25% of the adjusted body weight.

## C[C@@H]1COCCN1c1cc(C2(S(C)(=N)=O)CC2)nc(-c2ccnc3[nH]ccc23)n1 (stereo partly drawn) [AZD6738, 4-{4-[(3R)-3-methylmorpholin-4-yl]-6-[1-(S-methylsulfonimidoyl)cyclopropyl]pyrimidin-2-yl}-1H-pyrrolo[2,3-b]pyridine]
HCC-1954 cells [1]; HCC-1954, 6 d, S ± SD, cutoff ±1
  Synergy score S: 6.9±0.7
HCC-1954 cells [1]; cell line not given (screen on HCC-1954 or MDA-MB-468)
  Synergy score S: 7.6
HCC-1954 cells [1]; hotspot 160 to 630 nM AZD6738 and 0.16 to […] DUBA
  additional cancer cells killed versus additive (Loewe) prediction: up to 69%
MDA-MB-468 cells [2]
  Synergy score S: 5.7±1.0
MDA-MB-453 cells [3]; combination with ADC αHER2-2
  Synergy score S: 9.1±2.1
MDA-MB-453 cells [3]; combination with ADC αHER2-6
  Synergy score S: 9.5±0.9
NCI-N87 cells; combination with ADC αHER2-2
  Synergy score S: 3.7±0.7
NCI-N87 cells; combination with ADC αHER2-6
  Synergy score S: 3.0±0.05
BT-474 cells
  MNED (maximum non-efficacious dose): 1000 nM
Calu-3 cells
  MNED (maximum non-efficacious dose): 400 nM
HCC-1954 cells [4]
  MNED (maximum non-efficacious dose): 250 nM
JIMT-1 cells
  MNED (maximum non-efficacious dose): 80 nM
MDA-MB-361 cells
  MNED (maximum non-efficacious dose): 111 nM
MDA-MB-453 cells [5]
  MNED (maximum non-efficacious dose): 111 nM
MDA-MB-468 cells [6]
  MNED (maximum non-efficacious dose): 300 nM
SK-BR-3 cells
  MNED (maximum non-efficacious dose): 150 nM
SK-OV-3 cells
  MNED (maximum non-efficacious dose): 150 nM
[7]
  tolerability (conclusion): well tolerated
NCI-N87 xenografts
  tumor response (tumor volume): not statistically different from the vehicle-treated group
